Assay results: patent publication US9095534B2, “Intermittent dosing of nitric oxide gas” (SENSORMEDICS CORPORATION, priority 2004, dated 2015)

Assays:
[1] = test system: mycothiol in wild type M. smegmatis; assay: Mycothiol level by HPLC after exposure to NO gas; assay type: cell-based, Mycobacterium smegmatis; conditions: 400 ppm NO gas, compared to exposure to air, FIG. 11
Procedure: Further experiments were conducted to assay and measure the mycothiol level using HPLC in wild type M. smegmatis after exposure to 400 ppm NO gas and were compared to mycothiol level after exposure to air.

[2] = test system: mycothiol-deficient Mycobacterium smegmatis Mutant MshA; assay: Survival of mycothiol-deficient mutant versus wild type on exposure to NO gas; assay type: cell-based; conditions: 200 ppm NO gas; FIG. 10
Procedure: (§1) Additional studies were performed to test the hypothesis that the effect of NO gas in killing microorganisms is related to thiol function. […] This may be due to Mycobacteria having an exceptional thiol, mycothiol, that maintains the redox balance in the cell and protects the cell from nitrosative and oxidative stress. In order to test this hypothesis, sensitivities to NO gas was compared between mycothiol-deficient Mycobacterium smegmatis Mutant MshA to its wild type counterpart, mc^2155 by exposing both strains to 200 ppm of NO gas. MshA is an enzyme needed in mycothiol biosynthesis.

[3] = test system: Mycobacteria; assay: Sensitivity of various microorganisms to NO gas damage; assay type: cell-based; conditions: relative to other microorganisms studied
Procedure: as §1

[4] = test system: P. aeruginosa (ATCC #27853); assay: Survival of bacteria under cycled high/low NO gas exposure (cfu/ml); assay type: cell-based; conditions: 160 ppm for 30 minutes then 20 ppm for 3.5 hours, cycled every 4 hours for 24 hours; compared to air; FIG. 7
Procedure: (§2) The effectiveness of the intermittent nigh dose delivery of […] oxide gas in combating microorganisms was tested and verified. Briefly, the experimental methods were as follows. Inoculums of varying bacteria was prepared to a suspension of 2.5×10^8 cfu/ml, and diluted 1:1000 in sterile normal saline. Three milliliters of the inoculums were used per well in a sterile culture place. Exposure of the inoculums were performed in an exposure chamber, which has been described for example, in Gliafarri, A. et al., “A direct nitric oxide gas delivery system for bacterial and mammalian cell cultures,” Nitric Oxide. 12(3):129-40 (May 2005), which is hereby incorporated by reference as if fully set forth herein. The inoculums were exposed to 160 ppm of NO gas at a flow rate of 2.5 liters per minute for 30 minutes followed by exposure to 20 ppm of NO gas for 3.5 hours. The exposure to high and low concentrations of NO gas was repeatedly cycled every 4 hours for 24 hours. At various times (e.g., 0, 4, 8, and 12 hours), samples were taken and plated to determine the survivability of the bacteria as determined by counting cfu/ml.

[5] = test system: S. aureus (ATCC #25923); assay: as above; assay type: cell-based; conditions: 160 ppm for 30 minutes then 20 ppm for 3.5 hours, cycled every 4 hours for 24 hours; compared to air; FIG. 6
Procedure: as §2

[6] = test system: P. aeruginosa (clinical strain from Cystic Fibrosis); assay: as above; assay type: cell-based; conditions: 160 ppm for 30 minutes then 20 ppm for 3.5 hours, cycled every 4 hours for 24 hours; compared to air; FIG. 8
Procedure: as §2

[7] = test system: E. coli; assay: as above; assay type: cell-based; conditions: 160 ppm for 30 minutes then 20 ppm for 3.5 hours, cycled every 4 hours for 24 hours; compared to air; FIG. 9
Procedure: as §2

[N]=O [nitric oxide]
level of mycothiol in wild type M. smegmatis [1]: reduced compared to exposure to air | sensitivity of MshA mutant to NO gas versus wild type mc^2155 [2]: more sensitive to NO gas than its wild type counterpart | time to kill MshA mutant versus wild type mc^2155 [2]: killed in less time than its wild type counterpart | sensitivity of Mycobacteria to NO gas damage [3]: less sensitive to NO gas damage | survival of P. aeruginosa (ATCC #27853) [4]: effective method of killing the bacteria | survival of S. aureus (ATCC #25923) [5]: effective method of killing the bacteria | survival of P. aeruginosa (clinical strain from Cystic Fibrosis) [6]: effective method of killing the bacteria | survival of E. coli [7]: effective method of killing the bacteria
